Target: T1, HAB1 in the presence of PYR1 (Arabidopsis thaliana, UniProt O49686)
T1 construct: made in house; host or cells: E. coli BL21[DE3]pLysS
T1 sequence (O49686 1-191): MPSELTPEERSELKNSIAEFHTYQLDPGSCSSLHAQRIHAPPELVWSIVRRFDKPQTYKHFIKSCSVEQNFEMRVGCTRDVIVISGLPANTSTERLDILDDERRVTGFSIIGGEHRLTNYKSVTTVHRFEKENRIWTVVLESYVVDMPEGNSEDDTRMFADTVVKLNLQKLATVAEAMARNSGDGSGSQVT
T1 sequence (Q9CAJ0 23-511 partner): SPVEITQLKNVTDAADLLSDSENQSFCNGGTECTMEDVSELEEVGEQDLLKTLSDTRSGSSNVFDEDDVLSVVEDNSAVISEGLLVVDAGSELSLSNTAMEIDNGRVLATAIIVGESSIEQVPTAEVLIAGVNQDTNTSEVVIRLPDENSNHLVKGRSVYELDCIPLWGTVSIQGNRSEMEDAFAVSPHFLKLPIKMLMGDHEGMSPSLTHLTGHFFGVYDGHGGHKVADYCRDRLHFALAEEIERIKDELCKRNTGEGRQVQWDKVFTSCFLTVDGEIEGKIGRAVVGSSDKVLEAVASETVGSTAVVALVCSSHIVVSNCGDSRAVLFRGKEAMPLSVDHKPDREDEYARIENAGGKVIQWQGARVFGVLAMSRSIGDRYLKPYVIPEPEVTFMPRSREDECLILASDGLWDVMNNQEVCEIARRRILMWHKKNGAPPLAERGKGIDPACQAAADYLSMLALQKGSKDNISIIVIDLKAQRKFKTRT
Assay: PP2C phosphatase assay (pNPP), GST-HAB1 in the presence of PYR1
Format: biochemical
Conditions: 1 μM GST-HAB1, 1.5 μM 6×His-PYR1, 50 mM pNPP; read-out: IC50 of inhibition of HAB1 phosphatase activity in the presence of PYR1
From the text: Since ABI1 and relatives are negative regulators of the ABA signaling pathway, we hypothesized that the function of the ABA-promoted PYR1-PP2C interaction was to inhibit phosphatase activity and remove a negative input into the pathway, which would then promote signaling. To test this hypothesis, we examined the effects of (+)-ABA on PP2C enzyme kinetics using recombinant GST-HAB1, 6×His-PYR1 or 6×His-PYR1^P88S using the phosphatase substrate pNPP. The ORF of Arabidopsis HAB1 was amplified by PCR from a pUni clone obtained from the ABRC and cloned into pGex-2T to create a GST-HAB1 fusion protein. Both constructs were transformed into BL21[DE3]pLysS. For expression, cells harboring pGex-GST-HAB1 were grown overnight in 20 ml LB and then inoculated to 700 ml media containing 1 mM MnCl2 and continued incubation with shaking at RT for 8 hr. Protein expression was then induced by addition of IPTG to final concentration of 0.5 mM, and cells were cultured overnight at RT. […] Immediately after mixing, reactions were monitored for hydrolysis of pNPP at A405 t˜10 second intervals over 20 minutes using a Wallac plate reader. Reaction progressions were plotted, initial velocities calculated and converted to specific activities using a standard curve for 4-nitrophenol made in the same buffer system volumes/plate reader used for enzymatic reaction measurements. […]

SMILES: CC1=CC(=O)CC(C)(C)C1(O)/C=C/C(C)=C\C(=O)O (single isomer, unassigned; (+)) [(+)-ABA]
- IC50: 180 nM
